Measured values published in PubChem BioAssay (NCI).
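GI50 = concentration required for 50% inhibition of growth. TGI: concentration producing complete growth inhibition.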

Columns and labels:
Assay in all cases: NCI anticancer screen, dose series, 384-well format
SN12C renal = system: SN12C renal
SNB-19 CNS = system: SNB-19 CNS
SF-295 CNS = system: SF-295 CNS
SK-OV-3 ovarian = system: SK-OV-3 ovarian
KM12 colon = system: KM12 colon
MOLT-4 leukemia = system: MOLT-4 leukemia
SW-620 colon = system: SW-620 colon
NCI-H226 lung = system: NCI-H226 lung
A498 renal = system: A498 renal
UO-31 renal = system: UO-31 renal
MALME-3M melanoma = system: MALME-3M melanoma
TK-10 renal = system: TK-10 renal
U251 glioblastoma = system: U251 glioblastoma
A549 NSCLC = system: A549 NSCLC
MCF7 breast = system: MCF7 breast
MDA-MB-435 melanoma = system: MDA-MB-435 melanoma
IGROV1 ovarian = system: IGROV1 ovarian
HS 578T breast = system: HS 578T breast
NCI/ADR-RES ovarian = system: NCI/ADR-RES ovarian
EKVX NSCLC = system: EKVX NSCLC
SF-539 CNS = system: SF-539 CNS
UACC-257 melanoma = system: UACC-257 melanoma
DU-145 prostate = system: DU-145 prostate
SF-268 CNS = system: SF-268 CNS
PC-3 prostate = system: PC-3 prostate
HT29 colon = system: HT29 colon
K-562 leukemia = system: K-562 leukemia
CAKI-1 renal = system: CAKI-1 renal
BT-549 breast = system: BT-549 breast
M14 melanoma = system: M14 melanoma
OVCAR-3 ovarian = system: OVCAR-3 ovarian
RPMI-8226 leukemia = system: RPMI-8226 leukemia
RXF 393 renal = system: RXF 393 renal
CCRF-CEM leukemia = system: CCRF-CEM leukemia
UACC-62 melanoma = system: UACC-62 melanoma
OVCAR-5 ovarian = system: OVCAR-5 ovarian
SNB-75 CNS = system: SNB-75 CNS
HL-60(TB) leukemia = system: HL-60(TB) leukemia
LOX IMVI melanoma = system: LOX IMVI melanoma
HOP-62 NSCLC = system: HOP-62 NSCLC
ACHN renal = system: ACHN renal
SK-MEL-28 melanoma = system: SK-MEL-28 melanoma
HCT-116 colon = system: HCT-116 colon
NCI-H23 lung = system: NCI-H23 lung
HOP-92 NSCLC = system: HOP-92 NSCLC
MDA-MB-468 breast = system: MDA-MB-468 breast
NCI-H522 lung = system: NCI-H522 lung
786-0 renal = system: 786-0 renal
T-47D breast = system: T-47D breast
HCT-15 colon = system: HCT-15 colon
NCI-H322M lung = system: NCI-H322M lung
OVCAR-4 ovarian = system: OVCAR-4 ovarian
MDA-MB-231 breast = system: MDA-MB-231 breast
OVCAR-8 ovarian = system: OVCAR-8 ovarian

With `Nc1nc(Cl)nc2c1ncn2C1CC(O)C(CO)O1` (stereo not drawn) the GI50 (SN12C renal) was 122 nM, the TGI (SN12C renal) was 926 nM and the GI50 (SNB-19 CNS) was 738 nM. The TGI (SNB-19 CNS) was greater than 100000 nM, the GI50 (SF-295 CNS) was 11200 nM and the TGI (SF-295 CNS) was 34100 nM. For the same molecule, the GI50 (SK-OV-3 ovarian) was 3010 nM, the TGI (SK-OV-3 ovarian) was greater than 100000 nM and the GI50 (KM12 colon) was 994 nM. The TGI (KM12 colon) was greater than 100000 nM, the GI50 (MOLT-4 leukemia) was 22.9 nM and the TGI (MOLT-4 leukemia) was 59.6 nM. It also gave a GI50 (SW-620 colon) of 712 nM, a TGI (SW-620 colon) greater than 100000 nM and a GI50 (NCI-H226 lung) of 3580 nM. The TGI (NCI-H226 lung) was 18200 nM, the GI50 (A498 renal) was 701 nM and the TGI (A498 renal) was greater than 100000 nM. The GI50 (UO-31 renal) was 372 nM, the TGI (UO-31 renal) was 3850 nM and the GI50 (MALME-3M melanoma) was 308 nM. It also gave a TGI (MALME-3M melanoma) greater than 100000 nM, a GI50 (TK-10 renal) greater than 100000 nM and a TGI (TK-10 renal) greater than 100000 nM. The GI50 (U251 glioblastoma) was 825 nM, the TGI (U251 glioblastoma) was 15800 nM and the GI50 (A549 NSCLC) was 434 nM. For the same molecule, the TGI (A549 NSCLC) was greater than 100000 nM, the GI50 (MCF7 breast) was 650 nM and the TGI (MCF7 breast) was greater than 100000 nM. It also gave a GI50 (MDA-MB-435 melanoma) of 743 nM, a TGI (MDA-MB-435 melanoma) greater than 100000 nM and a GI50 (IGROV1 ovarian) of 14700 nM. It also gave a TGI (IGROV1 ovarian) greater than 100000 nM, a GI50 (HS 578T breast) of 70700 nM and a TGI (HS 578T breast) greater than 100000 nM. The GI50 (NCI/ADR-RES ovarian) was 135 nM, the TGI (NCI/ADR-RES ovarian) was greater than 100000 nM and the GI50 (EKVX NSCLC) was greater than 100000 nM. It also gave a TGI (EKVX NSCLC) greater than 100000 nM, a GI50 (SF-539 CNS) of 2630 nM and a TGI (SF-539 CNS) of 12200 nM. The GI50 (UACC-257 melanoma) was 1390 nM, the TGI (UACC-257 melanoma) was greater than 100000 nM and the GI50 (DU-145 prostate) was 808 nM. For the same molecule, the TGI (DU-145 prostate) was greater than 100000 nM, the GI50 (SF-268 CNS) was 2890 nM and the TGI (SF-268 CNS) was 19800 nM. For the same molecule, the GI50 (PC-3 prostate) was greater than 100000 nM, the TGI (PC-3 prostate) was greater than 100000 nM and the GI50 (HT29 colon) was 1370 nM. The TGI (HT29 colon) was greater than 100000 nM, the GI50 (K-562 leukemia) was 428 nM and the TGI (K-562 leukemia) was greater than 100000 nM. The GI50 (CAKI-1 renal) was 353 nM, the TGI (CAKI-1 renal) was greater than 100000 nM and the GI50 (BT-549 breast) was 184 nM. The TGI (BT-549 breast) was 977 nM, the GI50 (M14 melanoma) was 108 nM and the TGI (M14 melanoma) was 448 nM. For the same molecule, the GI50 (OVCAR-3 ovarian) was 2090 nM, the TGI (OVCAR-3 ovarian) was greater than 100000 nM and the GI50 (RPMI-8226 leukemia) was 372 nM. For the same molecule, the TGI (RPMI-8226 leukemia) was 1610 nM, the GI50 (RXF 393 renal) was 47800 nM and the TGI (RXF 393 renal) was greater than 100000 nM. For the same molecule, the GI50 (CCRF-CEM leukemia) was 81.2 nM, the TGI (CCRF-CEM leukemia) was 206 nM and the GI50 (UACC-62 melanoma) was 177 nM. It also gave a TGI (UACC-62 melanoma) of 501 nM, a GI50 (OVCAR-5 ovarian) of 764 nM and a TGI (OVCAR-5 ovarian) greater than 100000 nM. It also gave a GI50 (SNB-75 CNS) of 19900 nM, a TGI (SNB-75 CNS) of 87800 nM and a GI50 (HL-60(TB) leukemia) of 35.3 nM. It also gave a TGI (HL-60(TB) leukemia) of 108 nM, a GI50 (LOX IMVI melanoma) of 1110 nM and a TGI (LOX IMVI melanoma) of 3800 nM. It also gave a GI50 (HOP-62 NSCLC) of 236 nM, a TGI (HOP-62 NSCLC) of 969 nM and a GI50 (ACHN renal) of 923 nM. The TGI (ACHN renal) was 5140 nM, the GI50 (SK-MEL-28 melanoma) was 552 nM and the TGI (SK-MEL-28 melanoma) was greater than 100000 nM. The GI50 (HCT-116 colon) was 270 nM, the TGI (HCT-116 colon) was greater than 100000 nM and the GI50 (NCI-H23 lung) was 212 nM. It also gave a TGI (NCI-H23 lung) of 481 nM, a GI50 (HOP-92 NSCLC) of 9310 nM and a TGI (HOP-92 NSCLC) greater than 100000 nM. It also gave a GI50 (MDA-MB-468 breast) of 3030 nM, a TGI (MDA-MB-468 breast) of 16200 nM and a GI50 (NCI-H522 lung) of 830 nM. The TGI (NCI-H522 lung) was greater than 100000 nM, the GI50 ([…]-0 renal) was 1280 nM and the TGI (786-0 renal) was greater than 100000 nM. For the same molecule, the GI50 (T-47D breast) was 6730 nM, the TGI (T-47D breast) was greater than 100000 nM and the GI50 (HCT-15 colon) was 395 nM. For the same molecule, the TGI (HCT-15 colon) was greater than 100000 nM, the GI50 (NCI-H322M lung) was 37500 nM and the TGI (NCI-H322M lung) was greater than 100000 nM. The GI50 (OVCAR-4 ovarian) was greater than 100000 nM, the TGI (OVCAR-4 ovarian) was greater than 100000 nM and the GI50 (MDA-MB-231 breast) was 481 nM. It also gave a TGI (MDA-MB-231 breast) greater than 100000 nM, a GI50 (OVCAR-8 ovarian) of 35.6 nM and a TGI (OVCAR-8 ovarian) greater than 100000 nM.
